In patent US10266526B2, “Substituted 1,2,3-triazoles as SMYD inhibitors for treating cancer” (EPIZYME, INC., priority 2014, dated 2019) one finds IC50 data, which are given here for 35 compounds.

For the assay, the target named is SMYD2 (Homo sapiens (Human), UniProt Q9NRG4). In words: SMYD2 biochemical assay (SMYD2 enzyme assay on peptide substrate, 3H-SAM Flashplate). Conditions: read-out: SMYD2 Biochem IC50; IC50 values are an average of n = 1 to n = 50.
Chain of SMYD2 (Q9NRG4 whole entry): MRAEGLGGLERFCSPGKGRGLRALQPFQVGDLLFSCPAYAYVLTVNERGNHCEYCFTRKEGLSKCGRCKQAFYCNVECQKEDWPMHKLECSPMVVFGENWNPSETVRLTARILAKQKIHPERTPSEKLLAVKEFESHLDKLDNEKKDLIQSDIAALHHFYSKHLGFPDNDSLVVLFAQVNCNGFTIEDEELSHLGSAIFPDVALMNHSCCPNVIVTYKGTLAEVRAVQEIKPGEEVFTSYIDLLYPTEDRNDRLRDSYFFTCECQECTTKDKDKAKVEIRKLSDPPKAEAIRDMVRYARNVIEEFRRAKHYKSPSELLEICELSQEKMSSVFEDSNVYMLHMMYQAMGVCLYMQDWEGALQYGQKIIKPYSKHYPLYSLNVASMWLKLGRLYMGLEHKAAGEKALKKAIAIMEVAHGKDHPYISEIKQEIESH

Description: S-adenosylmethionine (SAM), S-adenosylhomocysteine (SAH), bicine, Tween20, dimethylsulfoxide (DMSO), bovine skin gelatin (BSG), and Tris(2-carboxyethyl)phosphine hydrochloride (TCEP) were purchased from Sigma-Aldrich at the highest level of purity possible. ^3H-SAM was purchase from American Radiolabeled Chemicals with a specific activity of 80 Ci/mmol. 384-well streptavidin Flashplates were purchased from PerkinElmer.
The sequence was [sequence](K-Biot)-amide.
Production of Recombinant SMYD2 Enzymes for Biochemical Enzyme Activity Assays
Full length SMYD2 (NP_064582.2) was cloned into a pFastbac-Htb-lic vector with an N-terminal His6 tag and FLAG tag, preceded by a TEV protease cleavage site. The protein was expressed in Sf9 insect cells. Cells were resuspended in lysis buffer (25 mM HEPES-NaOH, pH 7.5, 200 mM NaCl, 5% glycerol, and 5 mM (3-ME) and lysed by sonication. The protein was purified by Ni-NTA (Qiagen), followed by TEV cleavage to remove the His6 tag, subtractive Ni-NTA (Qiagen), and gel filtration chromatography using an S200 column (GE Healthcare). Purified protein was stored in 20 mM Tris-HCl, pH 8.0, 100 mM NaCl, and 1 mM TCEP.
General Procedure for SMYD2 Enzyme Assays on Peptide Substrates
The assays were all performed in a buffer consisting of 20 mM Bicine (pH=7.6), 1 mM TCEP, 0.005% Bovine Skin Gelatin, and 0.002% Tween20, prepared on the day of use. […] DMSO (1 ul) was added to Columns 11, 12, 23, 24, rows A-H for the maximum signal control and 1 ul of SAH, a known product and inhibitor of SMYD2, was added to columns 11, 12, 23, 24, rows I-P for the minimum signal control. A cocktail (40 ul) containing the SMYD2 enzyme was added by Multidrop Combi (Thermo-Fisher). The compounds were allowed to incubate with SMYD2 for 30 min at room temperature, then a cocktail (10 ul) containing ^3H-SAM and peptide was added to initiate the reaction (final volume=51 ul). […] The assays were stopped by the addition of non-radioactive SAM (10 ul) to a final concentration of 600 uM, which dilutes the ^3H-SAM to a level where its incorporation into the peptide substrate is no longer detectable. 50 ul of the reaction in the 384-well polypropylene plate was then transferred to a 384-well Flashplate and the biotinylated peptides were allowed to bind to the streptavidin surface for at least 1 hour before being washed three times with 0.1% Tween20 in a Biotek ELx405 plate washer. The plates were then read in a PerkinElmer TopCount plate reader to measure the quantity of ^3H-labeled peptide bound to the Flashplate surface, measured as disintegrations per minute (dpm) or alternatively, referred to as counts per minute (cpm).
Where dpm=disintegrations per minute, cmpd=signal in assay well, and min and max are the respective minimum and maximum signal controls.
Where top and bottom are the normally allowed to float, but may be fixed at 100 or 0 respectively in a 3-parameter fit. The Hill Coefficient normally allowed to float but may also be fixed at 1 in a 3-parameter fit. I is the compound concentration.

As to `C[C@H](c1ccccc1)N1CC(NC(=O)c2ncc(C3CC3)[nH]2)C1` [compound 915, 5-cyclopropyl-N-{1-[(1R)-1-phenylethyl]azetidin-3-yl}-1H-imidazole-2-carboxamide], the IC50 (in general, the concentration at which inhibition is half-maximal) was more than 50000 nM. For `CC(C)N1CCC(NC(=O)c2cc(C3CC3)cnn2)CC1` [compound 916, 5-cyclopropyl-N-[1-(propan-2-yl)piperidin-4-yl]pyridazine-3-carboxamide], the IC50 was 29100 nM.

As to `CN1CCC(NC(=O)c2cc(C3CC3)cnn2)CC1` [compound 917, 5-cyclopropyl-N-(1-methylpiperidin-4-yl)pyridazine-3-carboxamide], the IC50 was more than 50000 nM. In the case of `CN1CCCC(NC(=O)c2cc(C3CC3)cnn2)C1` (centres unmarked) [compound 918, 5-cyclopropyl-N-(1-methylpiperidin-3-yl)pyridazine-3-carboxamide], the IC50 is more than 50000 nM. Regarding `CC(C)N1CC(NC(=O)c2cn(C3CC3)cn2)C1` [compound 919, 1-cyclopropyl-N-(1-isopropylazetidin-3-yl)-1H-imidazole-4-carboxamide], the IC50 was found to be 4600 nM. As for `CC(c1ccc2[nH]nc(-c3ccccc3Cl)c2c1)N1CC(NC(=O)c2cn(C3CC3)nn2)C1` (centres unmarked) [compound 920, N-(1-(1-(3-(2-chlorophenyl)-1H-indazol-5-yl)ethyl)azetidin-3-yl)-1-cyclopropyl-1H-1,2,3-triazole-4-carboxamide], the IC50 is more than 50000 nM. With `CN(C)CCCNC(=O)c1cn(C2CC2)nn1` [compound 921, 1-cyclopropyl-N-(3-(dimethylamino)propyl)-1H-1,2,3-triazole-4-carboxamide], the IC50 was 5400 nM. Consider `CC(c1ccc(CNc2ccccc2)cc1)N1CC(NC(=O)c2cn(C3CC3)nn2)C1` (centres unmarked) [compound 922, 1-cyclopropyl-N-(1-(1-(4-((phenylamino)methyl)phenyl)ethyl)azetidin-3-yl)-1H-1,2,3-triazole-4-carboxamide], for which the IC50 was 650 nM. Regarding `COc1ccc(C(C)N2CC(NC(=O)c3cn(C4CC4)nn3)C2)nc1` (centres unmarked) [compound 923, 1-cyclopropyl-N-(1-(1-(5-methoxypyridin-2-yl)ethyl)azetidin-3-yl)-1H-1,2,3-triazole-4-carboxamide], the IC50 is 2700 nM.

Consider `CC(c1ccc(OCC2CCNCC2)cc1)N1CC(NC(=O)c2cn(C3CC3)nn2)C1` (centres unmarked) [compound 925, 1-cyclopropyl-N-(1-(1-(4-(piperidin-4-ylmethoxy)phenyl)ethyl)azetidin-3-yl)-1H-1,2,3-triazole-4-carboxamide], for which the IC50 came out at 4300 nM. `O=C(NC1CN(Cc2cnn(Cc3ccc(Cl)cc3)c2)C1)c1nc(C2CC2)c[nH]1` [compound 927, N-(1-((1-(4-chlorobenzyl)-1H-pyrazol-4-yl)methyl)azetidin-3-yl)-4-cyclopropyl-1H-imidazole-2-carboxamide]: the IC50 was determined as 11 nM. Regarding `Cn1cc(COc2ccc(CN3CC(NC(=O)c4cc(C5CC5)cnn4)C3)cc2)cn1` [compound 928, 5-cyclopropyl-N-(1-(4-((1-methyl-1H-pyrazol-4-yl)methoxy)benzyl)azetidin-3-yl)pyridazine-3-carboxamide], the IC50 was 610 nM. In the case of `O=C(NC1CN(Cc2cnn(Cc3ccc(Cl)cc3)c2)C1)c1cc(C2CC2)cnn1` [compound 929, N-(1-((1-(4-chlorobenzyl)-1H-pyrazol-4-yl)methyl)azetidin-3-yl)-5-cyclopropylpyridazine-3-carboxamide] it was 1.2 nM.

Regarding `O=C(NC1CN(Cc2cnn(Cc3ccc(Cl)cc3)c2)C1)c1cc(C2CC2)ccn1` [compound 930, N-(1-((1-(4-chlorobenzyl)-1H-pyrazol-4-yl)methyl)azetidin-3-yl)-4-cyclopropylpicolinamide], the IC50 was found to be 3.3 nM. Take `O=C(NC1CN(Cc2cn(Cc3ccccc3)nn2)C1)c1cn(C2CC2)nn1` [compound 931, N-(1-((1-benzyl-1H-1,2,3-triazol-4-yl)methyl)azetidin-3-yl)-1-cyclopropyl-1H-1,2,3-triazole-4-carboxamide]: the IC50 was 11100 nM. Regarding `COc1ccc(Cn2cc(CN3CC(NC(=O)c4cn(C5CC5)nn4)C3)cn2)cc1` [compound 932, 1-cyclopropyl-N-(1-((1-(4-methoxybenzyl)-1H-pyrazol-4-yl)methyl)azetidin-3-yl)-1H-1,2,3-triazole-4-carboxamide], the IC50 was 28 nM. With `O=C(NC1CN(Cc2cnn(Cc3ccccc3)c2)C1)c1cc(C2CC2)cnn1` [compound 933, N-(1-((1-benzyl-1H-pyrazol-4-yl)methyl)azetidin-3-yl)-5-cyclopropylpyridazine-3-carboxamide], the IC50 is 7.8 nM. On to `COc1cccc(C(C)N2CC(NC(=O)c3cc(C4CC4)cnn3)C2)c1` (centres unmarked) [compound 934, 5-cyclopropyl-N-(1-(1-(3-methoxyphenyl)ethyl)azetidin-3-yl)pyridazine-3-carboxamide], for which the IC50 worked out at 690 nM. On to `CC(c1ccc2nn(C)cc2c1)N1CC(NC(=O)c2cn(C3CC3)nn2)C1` (centres unmarked) [compound 935, 1-cyclopropyl-N-(1-(1-(2-methyl-2H-indazol-5-yl)ethyl)azetidin-3-yl)-1H-1,2,3-triazole-4-carboxamide], for which the IC50 came out at 1600 nM. In the case of `O=C(NC1CN(Cc2cnn(Cc3ccc4scnc4c3)c2)C1)c1cn(C2CC2)nn1` [compound 936, N-(1-((1-(benzo[d]thiazol-5-ylmethyl)-1H-pyrazol-4-yl)methyl)azetidin-3-yl)-1-cyclopropyl-1H-1,2,3-triazole-4-carboxamide], the IC50 worked out at 80 nM. With `Cc1coc(Cn2cc(CN3CC(NC(=O)c4cn(C5CC5)nn4)C3)cn2)n1` [compound 937, 1-cyclopropyl-N-(1-((1-((4-methyloxazol-2-yl)methyl)-1H-pyrazol-4-yl)methyl)azetidin-3-yl)-1H-1,2,3-triazole-4-carboxamide], the IC50 came out at 120 nM. Next, `COc1ccc(Cl)c(C(C)N2CC(NC(=O)c3cn(C4CC4)nn3)C2)c1` (centres unmarked) [compound 938, N-(1-(1-(2-chloro-5-methoxyphenyl)ethyl)azetidin-3-yl)-1-cyclopropyl-1H-1,2,3-triazole-4-carboxamide]: 130 nM; `COc1cc(C(C)N2CC(NC(=O)c3cn(C4CC4)nn3)C2)ccc1OCc1ccccc1` (centres unmarked) [compound 939, N-(1-(1-(4-(benzyloxy)-3-methoxyphenyl)ethyl)azetidin-3-yl)-1-cyclopropyl-1H-1,2,3-triazole-4-carboxamide]: 3600 nM; `O=C(NC1CN(Cc2cn[nH]c2)C1)c1cn(C2CC2)nn1` [compound 940, N-(1-((1H-pyrazol-4-yl)methyl)azetidin-3-yl)-1-cyclopropyl-1H-1,2,3-triazole-4-carboxamide]: 7700 nM. Consider `CSc1ccc(Cn2cc(CN3CC(NC(=O)c4cn(C5CC5)nn4)C3)cn2)cc1` [compound 941, 1-cyclopropyl-N-(1-((1-(4-(methylthio)benzyl)-1H-pyrazol-4-yl)methyl)azetidin-3-yl)-1H-1,2,3-triazole-4-carboxamide], for which the IC50 was determined as 28 nM. On to `O=C(NC1CN(Cc2cnn(Cc3ccccc3Cl)c2)C1)c1cn(C2CC2)nn1` [compound 942, N-(1-((1-(2-chlorobenzyl)-1H-pyrazol-4-yl)methyl)azetidin-3-yl)-1-cyclopropyl-1H-1,2,3-triazole-4-carboxamide], for which the IC50 turned out to be 110 nM. Consider `O=C(NC1CN(Cc2cnn(Cc3ccc(C(F)(F)F)cc3)c2)C1)c1cn(C2CC2)nn1` [compound 943, 1-cyclopropyl-N-(1-((1-(4-(trifluoromethyl)benzyl)-1H-pyrazol-4-yl)methyl)azetidin-3-yl)-1H-1,2,3-triazole-4-carboxamide], for which the IC50 came out at 14 nM. For `O=C(NC1CN(Cc2cnn(Cc3ncco3)c2)C1)c1cn(C2CC2)nn1` [compound 944, 1-cyclopropyl-N-(1-((1-(oxazol-2-ylmethyl)-1H-pyrazol-4-yl)methyl)azetidin-3-yl)-1H-1,2,3-triazole-4-carboxamide], the IC50 worked out at 920 nM. For `O=C(NC1CN(Cc2cnn(Cc3cscn3)c2)C1)c1cn(C2CC2)nn1` [compound 945, 1-cyclopropyl-N-(1-((1-(thiazol-4-ylmethyl)-1H-pyrazol-4-yl)methyl)azetidin-3-yl)-1H-1,2,3-triazole-4-carboxamide], the IC50 turned out to be 1200 nM.

On to `CCn1cc(CN2CC(NC(=O)c3cn(C4CC4)nn3)C2)cn1` [compound 946, 1-cyclopropyl-N-(1-((1-ethyl-1H-pyrazol-4-yl)methyl)azetidin-3-yl)-1H-1,2,3-triazole-4-carboxamide], for which the IC50 stood at 2000 nM. Turning to `CC(C)(C)c1ccc(Cn2cc(CN3CC(NC(=O)c4cn(C5CC5)nn4)C3)cn2)cc1` [compound 947, N-(1-((1-(4-(tert-butyl)benzyl)-1H-pyrazol-4-yl)methyl)azetidin-3-yl)-1-cyclopropyl-1H-1,2,3-triazole-4-carboxamide], the IC50 came out at 56 nM. Next, `O=C(NC1CN(Cc2cnn(CC3CCCCC3)c2)C1)c1cn(C2CC2)nn1` [compound 948, N-(1-((1-(cyclohexylmethyl)-1H-pyrazol-4-yl)methyl)azetidin-3-yl)-1-cyclopropyl-1H-1,2,3-triazole-4-carboxamide]: 360 nM; `O=C(NC1CN(Cc2cnn(CC3CCOCC3)c2)C1)c1cn(C2CC2)nn1` [compound 949, 1-cyclopropyl-N-(1-((1-((tetrahydro-2H-pyran-4-yl)methyl)-1H-pyrazol-4-yl)methyl)azetidin-3-yl)-1H-1,2,3-triazole-4-carboxamide]: 2400 nM; `O=C(NC1CN(Cc2cnn(CC3CCOC3)c2)C1)c1cn(C2CC2)nn1` (centres unmarked) [compound 950, 1-cyclopropyl-N-(1-((1-((tetrahydrofuran-3-yl)methyl)-1H-pyrazol-4-yl)methyl)azetidin-3-yl)-1H-1,2,3-triazole-4-carboxamide]: 2000 nM.

For `O=C(NC1CN(Cc2cnn(Cc3ccc(F)cc3)c2)C1)c1cn(C2CC2)nn1` [compound 951, 1-cyclopropyl-N-(1-((1-(4-fluorobenzyl)-1H-pyrazol-4-yl)methyl)azetidin-3-yl)-1H-1,2,3-triazole-4-carboxamide], the IC50 is 22 nM.
